Where two headings read alike, the source gives them in different places.
Target: T1, mTLR9 (Mus musculus, UniProt Q9EQU3)
T1 construct: Splenocytes isolated from male C57/BL6 mice; from tissue; host or cells: splenocytes from the spleen of male C57BL/6 mice
T1 sequence (Q9EQU3 26-1032): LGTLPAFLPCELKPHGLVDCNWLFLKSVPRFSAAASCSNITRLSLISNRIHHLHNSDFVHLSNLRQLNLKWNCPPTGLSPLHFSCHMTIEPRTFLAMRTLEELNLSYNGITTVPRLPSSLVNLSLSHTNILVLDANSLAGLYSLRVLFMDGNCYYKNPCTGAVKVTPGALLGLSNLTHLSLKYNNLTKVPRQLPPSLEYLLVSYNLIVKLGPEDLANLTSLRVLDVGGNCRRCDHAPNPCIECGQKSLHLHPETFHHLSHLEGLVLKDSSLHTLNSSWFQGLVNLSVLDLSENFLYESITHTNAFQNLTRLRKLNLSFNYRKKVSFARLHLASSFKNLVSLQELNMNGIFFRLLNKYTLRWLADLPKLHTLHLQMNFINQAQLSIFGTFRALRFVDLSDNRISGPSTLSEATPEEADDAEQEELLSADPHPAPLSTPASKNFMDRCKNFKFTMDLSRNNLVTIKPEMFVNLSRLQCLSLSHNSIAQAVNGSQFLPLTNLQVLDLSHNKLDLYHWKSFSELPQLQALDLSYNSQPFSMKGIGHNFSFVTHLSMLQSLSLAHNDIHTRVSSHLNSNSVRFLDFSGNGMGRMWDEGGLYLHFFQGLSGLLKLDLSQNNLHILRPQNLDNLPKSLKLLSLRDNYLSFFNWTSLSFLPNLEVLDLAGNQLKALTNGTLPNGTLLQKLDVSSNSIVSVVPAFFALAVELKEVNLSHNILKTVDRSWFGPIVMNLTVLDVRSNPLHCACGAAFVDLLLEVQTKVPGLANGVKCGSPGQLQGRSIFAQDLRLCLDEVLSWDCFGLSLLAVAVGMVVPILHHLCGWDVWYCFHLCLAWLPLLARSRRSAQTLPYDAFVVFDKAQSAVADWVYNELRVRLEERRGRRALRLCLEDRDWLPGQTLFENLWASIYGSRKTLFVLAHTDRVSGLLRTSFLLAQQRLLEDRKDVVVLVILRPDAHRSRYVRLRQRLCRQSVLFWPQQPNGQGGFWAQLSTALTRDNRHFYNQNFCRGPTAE
Experiment: mTLR9 antagonism (IL-6 and TNF-α release assay) in mouse splenocytes, CpG ODN-2006 stimulated
Format: cell-based
Excerpt: mTLR9 and mTLR7 Antagonism (Cytokine Release Assay) in Mouse Splenocytes
TLR7 ligand R0006 (IDT, 5′-rU*rU*rG*rU*rU*rG*rU*rU*rG*rU*rU*rG*rU*rU*rG*rU*rU*rG*rU*rU-3′ (SEQ ID NO:1)), Liposomal transfection reagent—DOTAP (Roche, Cat. No. 11202375001), TLR9 ligand CpG ODN2006 (Sequence: T*C*G*T*C*G*T*T*T*T*G*T*C*G*T*T*T*T*G*T*C*G*T*T; *=phosphorothioate (SEQ ID NO:2)) DMSO (Sigma, D2650), RPMI Powder (Sigma, R6504), Fetal Bovine Serum (Gibco, 10270), Dulbecco's Phosphate Buffered Saline (Sigma, D1408), 96 well plate (Flat bottom, Costar 3599), ELISA kit for IL-6 (EBioscience, 88-7064-77 and TNFa (EBioscience, 88-7346-88), MACS Buffer (AutoMACS Rinsing Solution (Miltenyl Biotec, 130-091-222)+0.05% BSA), RBC lysis buffer (0.85% NH4Cl), 40 μm cell strainer (BD Falcon, 352340) Method: A. Isolation of Mouse Splenocytes
Mouse spleen was isolated from C57BL6 mouse and stored in 1× chilled PBS buffer until further processed. Spleen was transferred to a sterile petriplate and chopped in to 5-6 pieces in presence of MACS buffer (100 μl) with the help of fresh surgical blade and crushed with flat plunger of a sterile syringe. A uniform suspension was prepared by passing cells through a 40 μm cell strainer. Cells were centrifuged at 450×g for 5 minutes at 4° C., supernatant was discarded and pellet dislodged gently, resuspended in 2 ml of pre-warmed (37° C.) RBC lysis buffer at room temperature with continuous gentle mixing with 1 ml pipette. Lysis buffer was neutralized with 12 ml of chilled MACS buffer and cells were passed through 40 μm cell strainer. Cell suspension was collected in 15 ml MACS buffer and centrifuged at 450×g for 5 minutes at 4° C. Pellet was resuspended in 15 ml MACS buffer and centrifuged at 400×g for 5 minutes. Cells were resuspended in 10 ml of RPMI complete medium and viability was estimated by Trypan blue method.
mTLR9 Antagonism (IL-6 and TNF-α Release Assay):
500 μM stock of CpG ODN-2006 was prepared in sterile, endotoxin-free water. Dilutions of 10× concentrations of NCEs were prepared in incomplete RPMI media, maintaining a final DMSO concentration of 0.3%. NCEs were added in a concentration range of 30 μM to 1 nM in respective wells of assay plate, assay medium containing 0.3% DMSO were added to control wells. 0.2 million splenocytes were added to all the wells and incubated at 37° C. in 5% CO2 incubator for 30 minutes. 1 μg/ml of respective agonist was added to all the wells except those were assigned as negative controls and mixed thoroughly. Incomplete RPMI was added to negative control wells and incubated overnight at 37° C./5% CO2. The plate was centrifuged at 450×g for 5 minutes at room temperature and the supernatant was collected. ELISA was performed as per manufacturer's protocol. S/B Ratio, % Activity and % Inhibition was calculated using MS Excel. IC50 and inhibition curve was generated using Graph Pad Prism.

[1] = 1 μM, IL-6 release, mouse splenocytes, read-out: mTLR9 inhibitory activity (% at 1 μM), IL-6
[2] = 1 μM, TNF-α release, mouse splenocytes, read-out: mTLR9 inhibitory activity (% at 1 μM), TNF-α

| Structure (SMILES) | inhibition at 1 µM [1] | inhibition at 1 µM [2] | inhibition at 1 µM (read-out: mTLR9 inhibitory activity (% at 1 μM), IL-6) | inhibition at 1 µM (read-out: mTLR9 inhibitory activity (% at 1 μM), TNF-α) |
| --- | --- | --- | --- | --- |
| CN1CCN(c2cccc(-c3nccc4[nH]c(CN5CCOCC5)cc34)c2)CC1 [Example A61, 4-[[4-[3-(4-methylpiperazin-1-yl)phenyl]-1H-pyrrolo[3,2-c]pyridin-2-yl]methyl]morpholine] | 100% | 45% |  |  |
| CN1CCC(n2cc(-c3nccc4[nH]c(CN5CCOCC5)cc34)cn2)CC1 [Example A63, 4-[[4-[1-(1-methyl-4-piperidyl)pyrazol-4-yl]-1H-pyrrolo[3,2-c]pyridin-2-yl]methyl]morpholine] |  | 0% |  |  |
| CC(C)N1CCC(c2ccc(-c3nccc4[nH]c(CN5CCOCC5)cc34)cc2)CC1 [Example A70, 4-[[4-[4-(1-isopropyl-4-piperidyl)phenyl]-1H-pyrrolo[3,2-c]pyridin-2-yl]methyl]morpholine] | 95% | 52% |  |  |
| CC(C)N1CCN(c2ccc(-c3nccc4[nH]c(CN5CCC[C@@H]5C(=O)O)cc34)cc2)CC1 [Example A74, (2R)-1-[[4-[4-(4-isopropylpiperazin-1-yl)phenyl]-1H-pyrrolo[3,2-c]pyridin-2-yl]methyl]pyrrolidine-2-carboxylic acid] |  | 95% |  |  |
| CC(C)N1CCN(c2ccc(-c3nccc4[nH]c(C(=O)N5CCOCC5)cc34)cc2)CC1 [Example A82, [4-[4-(4-isopropylpiperazin-1-yl)phenyl]-1H-pyrrolo[3,2-c]pyridin-2-yl]-morpholino-methanone] |  |  | 100% | 52% |
| CC(C)N1CCN(c2ccc(-c3nccc4[nH]c(CCN5CCOCC5)cc34)cc2)CC1 [Example B1, 4-[2-[4-[4-(4-isopropylpiperazin-1-yl)phenyl]-1H-pyrrolo[3,2-c]pyridin-2-yl]ethyl]morpholine] | 100% | 100% |  |  |
| Cc1cc2[nH]c(CCN3CCOCC3)cc2c(-c2ccc(N3CCN(C(C)C)CC3)cc2)n1 [Example B3, 4-[2-[4-[4-(4-isopropylpiperazin-1-yl)phenyl]-6-methyl-1H-pyrrolo[3,2-c]pyridin-2-yl]ethyl]morpholine] | 100% | 100% |  |  |
| Cc1cc2[nH]c(CCN3CCOCC3)cc2c(-c2ccc(N3CCN(C)CC3)cc2)n1 [Example B4, 4-[2-[6-methyl-4-[4-(4-methylpiperazin-1-yl)phenyl]-1H-pyrrolo[3,2-c]pyridin-2-yl]ethyl]morpholine] |  | 100% |  |  |
| Cc1cc2[nH]c(CCN3CCCCC3)cc2c(-c2ccc(N3CCN(C(C)C)CC3)cc2)n1 [Example B5, 4-[4-(4-isopropylpiperazin-1-yl)phenyl]-6-methyl-2-[2-(1-piperidyl)ethyl]-1H-pyrrolo[3,2-c]pyridine] |  | 100% |  |  |
| Cc1cc2c(cc(CCN3CCOCC3)n2C)c(-c2ccc(N3CCN(C(C)C)CC3)cc2)n1 [Example B11, 4-[2-[4-[4-(4-isopropylpiperazin-1-yl)phenyl]-1,6-dimethyl-pyrrolo[3,2-c]pyridin-2-yl]ethyl]morpholine] | 100% | 100% |  |  |

Second part, led by results:

| inhibition at 1 µM [1] | inhibition at 1 µM [2] | Structure (SMILES) | inhibition at 1 µM (read-out: mTLR9 inhibitory activity (% at 1 μM), IL-6) | inhibition at 1 µM (read-out: mTLR9 inhibitory activity (% at 1 μM), TNF-α) |
| --- | --- | --- | --- | --- |
| 0% | 38% | CN1CCN(Cc2ccc(-c3nccc4[nH]c(CN5CCOCC5)cc34)cc2)CC1 [Example A60, 4-[[4-[4-[(4-methylpiperazin-1-yl)methyl]phenyl]-1H-pyrrolo[3,2-c]pyridin-2-yl]methyl]morpholine] |  |  |
|  | 79% | CN1CCC(Oc2ccc(-c3nccc4[nH]c(CN5CCOCC5)cc34)cc2)CC1 [Example A62, 4-[[4-[4-[(1-methyl-4-piperidyl)oxy]phenyl]-1H-pyrrolo[3,2-c]pyridin-2-yl]methyl]morpholine] |  |  |
| 25% | 0% | CC(C)N1CCC(c2ccc(-c3nccc4[nH]c(CN5CCOCC5)cc34)cn2)CC1 [Example A64, 4-[[4-[6-(1-isopropyl-4-piperidyl)-3-pyridyl]-1H-pyrrolo[3,2-c]pyridin-2-yl]methyl]morpholine] |  |  |
| 72% | 0% | CC(C)N1CCN(c2ccc(-c3nccc4[nH]c(CN5CC(O)C5)cc34)cc2)CC1 [Example A72, 1-[[4-[4-(4-isopropylpiperazin-1-yl)phenyl]-1H-pyrrolo[3,2-c]pyridin-2-yl]methyl]azetidin-3-ol] |  |  |
| 37% | 20% | c1cc2[nH]c(CN3CCOCC3)cc2c(-c2ccc(N3CCN(C4COC4)CC3)cc2)n1 [Example A81, 4-[[4-[4-[4-(oxetan-3-yl)piperazin-1-yl]phenyl]-1H-pyrrolo[3,2-c]pyridin-2-yl]methyl]morpholine] |  |  |
| 100% | 95% | CN1CCN(c2ccc(-c3nccc4[nH]c(CCN5CCOCC5)cc34)cc2)CC1 [Example B2, 4-[2-[4-[4-(4-methylpiperazin-1-yl)phenyl]-1H-pyrrolo[3,2-c]pyridin-2-yl]ethyl]morpholine] |  |  |
| 100% | 100% | Cc1nc(-c2ccc(N3CCN(C(C)C)CC3)cc2)c2cc(CCN3CCOCC3)[nH]c2c1C [Example B6, 4-[2-[4-[4-(4-isopropylpiperazin-1-yl)phenyl]-6,7-dimethyl-1H-pyrrolo[3,2-c]pyridin-2-yl]ethyl]morpholine] |  |  |
|  | 100% | Cc1nc(-c2ccc(N3CCN(C)CC3)cc2)c2cc(CCN3CCOCC3)[nH]c2c1C [Example B7, 4-[2-[6,7-dimethyl-4-[4-(4-methylpiperazin-1-yl)phenyl]-1H-pyrrolo[3,2-c]pyridin-2-yl]ethyl]morpholine] |  |  |
|  | 93% | CCN1CCN(c2ccc(-c3nc(C)c(C)c4[nH]c(CCN5CCOCC5)cc34)cc2)CC1 [Example B8, 4-[2-[4-[4-(4-ethylpiperazin-1-yl)phenyl]-6,7-dimethyl-1H-pyrrolo[3,2-c]pyridin-2-yl]ethyl]morpholine] |  |  |
| 100% | 100% | Cc1nc(-c2ccc(N3CCN(C(C)C)CC3)cc2)c2cc(CCN3CCCC3)[nH]c2c1C [Example B10, 4-[4-(4-isopropylpiperazin-1-yl)phenyl]-6,7-dimethyl-2-(2-pyrrolidin-1-ylethyl)-1H-pyrrolo[3,2-c]pyridine] |  |  |

From patent US9643967B2, “Pyrrolo[3,2-c]pyridine derivatives as TLR inhibitors” (TAKEDA PHARMACEUTICAL COMPANY LIMITED, priority 2013, dated 2017)
